The values below come from patent EP0448765A1, “Use of guanidine derivatives for the manufacture of a medicament with NPY-antagonistic activity” (HEUMANN PHARMA GMBH & CO, priority 1990, dated 1991).

In the assay the target is T1, spezifischen NPY-Rezeptors (Homo sapiens, UniProt P25929).
T1 construct: intrazellulären Ca⁺⁺-Konzentration in HEL-Zellen (Human Erythroleukemia-Zellen) fluorimetrisch mit Fura-2 als Indikator gemessen; endogenous in cells; host or cells: HEL (human erythroleukemia) cells
T1 sequence (P25929 1-384): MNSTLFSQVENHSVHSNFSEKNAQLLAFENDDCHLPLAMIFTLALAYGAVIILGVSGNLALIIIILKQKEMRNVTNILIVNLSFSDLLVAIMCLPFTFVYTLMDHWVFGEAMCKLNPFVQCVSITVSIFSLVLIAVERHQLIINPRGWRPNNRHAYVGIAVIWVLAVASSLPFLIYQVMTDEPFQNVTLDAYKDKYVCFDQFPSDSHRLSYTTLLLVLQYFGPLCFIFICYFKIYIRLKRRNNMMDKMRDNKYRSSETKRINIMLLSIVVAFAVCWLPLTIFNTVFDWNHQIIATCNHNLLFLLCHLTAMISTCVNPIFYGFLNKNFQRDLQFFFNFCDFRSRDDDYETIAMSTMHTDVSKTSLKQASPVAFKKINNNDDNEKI
Briefly: Inhibition of the NPY-induced rise of intracellular Ca++ in HEL cells (fluorimetric, Fura-2; method of Motulsky and Michel). Format: cell-based. The following applies: HEL-Zellen, antagonists added at 10⁻⁴ bis 10⁻⁶ (unit inferred), Schild-Plot-Analyse, read-out: pA2 Hemmung des Ca^++-Anstieges (converted). The text has this: Die Neuropeptid-Y-antagonistische Wirkung der erfindungsgemäß verwendeten Verbindungen wurde anhand der Methode von Motulsky und Michel (Motulsky, H.J., Michel, M.C., Am. J. Physiol. 255, 880 (1988)) nachgewiesen.
Bei dieser Methode wird der durch NPY induzierte Anstieg der intrazellulären Ca⁺⁺-Konzentration in HEL-Zellen (Human Erythroleukemia-Zellen) fluorimetrisch mit Fura-2 als Indikator gemessen. Unter den gegebenen Bedingungen bewirkt NPY einen konzentrationsabhängigen Anstieg der intrazellulären Ca⁺⁺-Konzentration über die Stimulation des spezifischen NPY-Rezeptors.
Zur Messung der Hemmwirkung der zu testenden Antagonisten werden diese in Konzentrationen von 10⁻⁴ bis 10⁻⁶ dem Inkubationsmedium zugesetzt. Dann wird erneut eine NPY-Wirkungskurve bestimmt.
Die erfindungsgemäß verwendeten Guanidinverbindungen verschieben die NPY-Konzentrationswirkungskurve nach rechts. Die Rechtsverschiebung ist nach Schild-Plot-Analyse kompetitiv. Die Substanzen antagonisieren demnach die NPY-Wirkung durch Konkurrenz am spezifischen NPY-Rezeptor.
As to `N=C(NCCCc1c[nH]cn1)NCCOC(c1ccccc1)c1ccccc1` [Verbindung A, N¹-[3-(1H-Imidazol-4-yl)propyl]-N²-[2-(diphenylmethoxy)ethyl]-guanidin], the Kb was 100 µM.

Take `N=C(NCCCc1c[nH]cn1)NCCC(c1cc(F)cc(F)c1)c1ccccn1` (stereo not shown) [Verbindung B, N¹-[3-(3,5-Difluorphenyl)-3-(pyridin-2-yl)propyl]-N²-[3-(1H-imidazol-4-yl)propyl]-guanidin]: the Kb is 19.1 µM. Turning to `Cc1cc(Br)cnc1N(CCNC(=N)NCCCc1c[nH]cn1)Cc1ccccc1` [Verbindung C, N¹-[2-[N-(5-Brom-3-methyl-pyridin-2-yl)benzylamino]-ethyl]-N²-[3-(1H-imidazol-4-yl)propyl]-guanidin], the Kb is 1.32 µM. The value for `Cc1cc(Br)cnc1CCCCNC(=N)NCCCc1c[nH]cn1` [Verbindung D, N¹-[4-(5-Brom-3-methyl-pyridin-2-yl)butyl]-N²-[3-(1H-imidazol-4-yl)propyl]-guanidin] was 9.12 µM.
